Test results as given in ChEMBL document CHEMBL1123014, “Synthesis and pharmacological activity of partially modified retro-inverso dermorphin tetrapeptides” (J Med Chem, 1985).

Tests used:
Cavia porcellus = organism: Cavia porcellus; assay: In vitro inhibition of contractions in the electrically stimulated guinea pig ileum.; assay type: functional
[1] = Half-life was determined; assay type: ADME; details: human
Mus musculus [2] = assay: In vivo analgesic activity in the mouse tail-flick assay following i.c.v. administration.; assay type: functional
[3] = Half-life of the compound; assay type: ADME
Mus musculus [4] = assay: In vivo analgesic activity in the mouse tail-flick assay following s.c. administration.; assay type: functional; details: sc
Mus musculus [5] = assay: In vivo analgesic potency in mice compared to morphine after s.c. administration.; assay type: functional
Mus musculus [6] = assay: In vivo analgesic potency in mice compared to morphine after i.c.v. administration.; assay type: functional

For `C[C@@H](NC(=O)[C@@H](N)Cc1ccc(O)cc1)C(=O)N[C@@H](Cc1ccccc1)C(=O)NCC(=O)NO`, the IC50 (Cavia porcellus) was 0.108 µM, the half-life [1] was 25 min and the ED50 (Mus musculus [2]) was 140 pmol/mouse.
Molecule `C[C@@H](NC(=O)[C@@H](N)Cc1ccc(O)cc1)C(=O)N[C@@H](Cc1ccccc1)C(=O)NCNC(=O)C12CC3CC(CC(C3)C1)C2` has a half-life [3] of 65 min, an IC50 (Cavia porcellus) of 0.00031 µM and a half-life [1] of 80 min. The ED50 (Mus musculus [4]) was 21.7 µmol/kg and the ED50 (Mus musculus [2]) was 10.9 pmol/mouse.
Molecule `C[C@@H](NC(=O)[C@@H](N)Cc1ccc(O)cc1)C(=O)N[C@@H](Cc1ccccc1)NC(=O)CC(=O)NC12CC3CC(CC(C3)C1)C2` has a half-life [3] of 50 min, an IC50 (Cavia porcellus) of 0.00445 µM and a half-life [1] of 65 min. For the same molecule, the ED50 (Mus musculus [4]) was 55.5 µmol/kg and the ED50 (Mus musculus [2]) was 88.4 pmol/mouse.
Work on `C[C@@H](NC(=O)[C@@H](N)Cc1ccc(O)cc1)C(=O)N[C@@H](Cc1ccccc1)NC(=O)CC(=O)NCc1ccccc1` yielded an IC50 (Cavia porcellus) of 0.0182 µM, a half-life [1] of 35 min and an ED50 (Mus musculus [2]) of 556 pmol/mouse.
In the case of `C[C@@H](NC(=O)[C@@H](N)Cc1ccc(O)cc1)C(=O)N(C)[C@@H](Cc1ccccc1)NC(=O)CNC(=O)C12CC3CC(CC(C3)C1)C2`, the IC50 (Cavia porcellus) is reported as 0.0192 µM, the half-life [1] is reported as 55 min and the ED50 (Mus musculus [2]) is reported as 246 pmol/mouse.
With `C[C@@H](NC(=O)[C@@H](N)Cc1ccc(O)cc1)C(=O)N[C@@H](Cc1ccccc1)C(=O)NCC(=O)NC12CC3CC(CC(C3)C1)C2` the IC50 (Cavia porcellus) was 0.00205 µM, the half-life [1] was 35 min and the ED50 (Mus musculus [4]) was 18.8 µmol/kg. It also gave an ED50 (Mus musculus [2]) of 5.12 pmol/mouse.
`CC(NC(=O)CNC(=O)[C@H](Cc1ccccc1)NC(=O)[C@@H](C)NC(=O)[C@@H](N)Cc1ccc(O)cc1)c1ccccc1` (stereo partly specified) showed an IC50 (Cavia porcellus) of 0.00059 µM, a half-life [1] of 40 min and an ED50 (Mus musculus [4]) of 13.6 µmol/kg. The ED50 (Mus musculus [2]) was 7.61 pmol/mouse.
`CC(NC(=O)CC(=O)N[C@H](Cc1ccccc1)NC(=O)[C@@H](C)NC(=O)[C@@H](N)Cc1ccc(O)cc1)c1ccccc1` (stereo partly specified) showed a half-life [3] of 60 min, an IC50 (Cavia porcellus) of 0.00205 µM and a Relative potency (Mus musculus [5]) of 0.24. For the same molecule, the half-life [1] was 65 min, the ED50 (Mus musculus [4]) was 44.2 µmol/kg and the ED50 (Mus musculus [2]) was 88.6 pmol/mouse.
With `C[C@@H](NC(=O)[C@@H](N)Cc1ccc(O)cc1)C(=O)N[C@@H](Cc1ccccc1)NC(=O)CC(=O)NO` the IC50 (Cavia porcellus) was 0.33 µM, the half-life [1] was 30 min and the ED50 (Mus musculus [2]) was 1600 pmol/mouse.
`C[C@@H](NC(=O)[C@@H](N)Cc1ccc(O)cc1)C(=O)N[C@@H](Cc1ccccc1)C(=O)NCC(=O)NCc1ccccc1` showed an IC50 (Cavia porcellus) of 0.00297 µM, a half-life [1] of 30 min and an ED50 (Mus musculus [2]) of 33.1 pmol/mouse.
With `CCONC(=O)CC(=O)N[C@H](Cc1ccccc1)NC(=O)[C@@H](C)NC(=O)[C@@H](N)Cc1ccc(O)cc1` the IC50 (Cavia porcellus) was 0.32 µM, the half-life [1] was 30 min and the ED50 (Mus musculus [2]) was 1630 pmol/mouse.
`C[C@@H](NC(=O)[C@@H](N)Cc1ccc(O)cc1)C(=O)N[C@@H](Cc1ccccc1)C(=O)NCC(N)=O` showed an IC50 (Cavia porcellus) of 0.0452 µM, a half-life [1] of 30 min and an ED50 (Mus musculus [4]) of 68.1 µmol/kg. For the same molecule, the ED50 (Mus musculus [2]) was 68 pmol/mouse.
In the case of `CC(C(=O)NCC(=O)N[C@H](Cc1ccccc1)N(C)C(=O)[C@@H](C)NC(=O)[C@@H](N)Cc1ccc(O)cc1)c1ccccc1` (stereo partly specified), the IC50 (Cavia porcellus) is reported as 0.0312 µM, the half-life [1] is reported as 60 min and the ED50 (Mus musculus [2]) is reported as 269 pmol/mouse.
In the case of `C[C@@H](NC(=O)[C@@H](N)Cc1ccc(O)cc1)C(=O)N[C@@H](Cc1ccccc1)NC(=O)CC(N)=O`, the IC50 (Cavia porcellus) is reported as 0.242 µM, the Relative potency (Mus musculus [6]) is reported as 3.11 and the half-life [1] is reported as 35 min. It also gave an ED50 (Mus musculus [2]) of 974 pmol/mouse.
With `C[C@@H](NC(=O)[C@@H](N)Cc1ccc(O)cc1)C(=O)N(C)[C@@H](Cc1ccccc1)NC(=O)CNC(=O)Cc1ccccc1` the IC50 (Cavia porcellus) was 0.0252 µM, the half-life [1] was 45 min and the ED50 (Mus musculus [2]) was 292 pmol/mouse.
For `C[C@@H](NC(=O)[C@@H](N)Cc1ccc(O)cc1)C(=O)N[C@@H](Cc1ccccc1)C(=O)NCNC(=O)Cc1ccccc1`, the half-life [3] was 45 min, the IC50 (Cavia porcellus) was 0.00212 µM and the half-life [1] was 60 min. For the same molecule, the ED50 (Mus musculus [4]) was 27.8 µmol/kg and the ED50 (Mus musculus [2]) was 74.1 pmol/mouse.
For `CC(C(=O)NCNC(=O)[C@H](Cc1ccccc1)NC(=O)[C@@H](C)NC(=O)[C@@H](N)Cc1ccc(O)cc1)c1ccccc1` (stereo partly specified), the half-life [3] was 65 min, the IC50 (Cavia porcellus) was 0.0005 µM and the half-life [1] was 65 min. The ED50 (Mus musculus [4]) was 39.5 µmol/kg and the ED50 (Mus musculus [2]) was 19.2 pmol/mouse.
In the case of `C[C@@H](NC(=O)[C@@H](N)Cc1ccc(O)cc1)C(=O)N[C@@H](Cc1ccccc1)C(=O)NCNC=O`, the IC50 (Cavia porcellus) is reported as 0.0392 µM, the half-life [1] is reported as 40 min and the ED50 (Mus musculus [2]) is reported as 157 pmol/mouse.
Molecule `CCONC(=O)CNC(=O)[C@H](Cc1ccccc1)NC(=O)[C@@H](C)NC(=O)[C@@H](N)Cc1ccc(O)cc1` has an IC50 (Cavia porcellus) of 0.191 µM, a half-life [1] of 20 min and an ED50 (Mus musculus [2]) of 492 pmol/mouse.
For `C[C@@H](NC(=O)[C@@H](N)Cc1ccc(O)cc1)C(=O)N(C)[C@@H](Cc1ccccc1)NC(=O)CNC=O`, the IC50 (Cavia porcellus) was 0.38 µM, the half-life [1] was 35 min and the ED50 (Mus musculus [2]) was 642 pmol/mouse.
Molecule `C[C@@H](NC(=O)[C@@H](N)Cc1ccc(O)cc1)C(=O)N[C@@H](Cc1ccccc1)C(=O)NCC(=O)N[C@@H](Cc1ccc(O)cc1)C(=O)N1CCC[C@H]1C(=O)N[C@@H](CO)C(N)=O` [DERMORPHIN] has a half-life [3] of 35 min, a half-life [1] of 40 min and an ED50 (Mus musculus [4]) of 2.75 µmol/kg. The ED50 (Mus musculus [2]) was 11.4 pmol/mouse.
Molecule `CN1CC[C@]23c4c5ccc(O)c4O[C@H]2[C@@H](O)C=C[C@H]3[C@H]1C5` [MORPHINE] has an ED50 (Mus musculus [4]) of 10.9 µmol/kg and an ED50 (Mus musculus [2]) of 3030 pmol/mouse.
